According to publication PMC5448077, “Development of an orally available inhibitor of CLK1 for skipping a mutated dystrophin exon in Duchenne muscular dystrophy” (Scientific Reports, 2017):

Key:
Assay in all cases: biochemical
NuaK1 = NuaK1 (Homo sapiens, UniProt O60285)
How it was run: (§1)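 Human kinases phosphorylating kinase-specific synthetic peptides, assayed by mobility shift (MSA) or IMAP fluorescence polarization, in 20 mM HEPES pH 7.5, 0.01% Triton X-100, 2 mM DTT with substrate/ATP-metal. Reactions ran 1 or 5 h at room temperature; activity = P/(P + S) from product and substrate peak heights.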

EGFR(T790M/L858R) = EGFR(T790M/L858R) (Homo sapiens, UniProt P00533, L858R/T790M)
How it was run: as §1

PKACβ = target: T1, PKACβ (Homo sapiens, UniProt P22694)
T1 construct: gene PRKACB
How it was run: as §1

EPHA4 = EPHA4 (Homo sapiens, UniProt P54764)
How it was run: as §1

PKCι = target: T2, PKCι (Homo sapiens, UniProt P41743)
T2 construct: gene PRKCI
How it was run: as §1

SGK = target: T3, SGK (Homo sapiens, UniProt O00141)
T3 construct: gene SGK1
How it was run: as §1

RSK1 = target: T4, RSK1 (Homo sapiens, UniProt Q15418)
T4 construct: gene RPS6KA1
How it was run: as §1

BMX = BMX (Homo sapiens, UniProt P51813)
How it was run: as §1

AXL = AXL (Homo sapiens, UniProt P30530)
How it was run: as §1

PDGFRα(T674I) = target: T5, PDGFRα(T674I) (Homo sapiens, UniProt P16234, T674I)
T5 construct: gene PDGFRA
How it was run: as §1

CDK5/p25 = target: T6, CDK5/p25 (Homo sapiens, UniProt Q00535)
T6 construct: p25
How it was run: as §1

PKCγ = target: T7, PKCγ (Homo sapiens, UniProt P05129)
T7 construct: gene PRKCG
How it was run: as §1

AKT3 = AKT3 (Homo sapiens, UniProt Q9Y243)
How it was run: as §1

NEK1 = NEK1 (Homo sapiens, UniProt Q96PY6)
How it was run: as §1

FGFR2 = FGFR2 (Homo sapiens, UniProt P21802)
How it was run: as §1

FGFR1 = FGFR1 (Homo sapiens, UniProt P11362)
How it was run: as §1

EPHB4 = EPHB4 (Homo sapiens, UniProt P54760)
How it was run: as §1

PDGFRα(V561D) = target: T8, PDGFRα(V561D) (Homo sapiens, UniProt P16234, V561D)
T8 construct: gene PDGFRA
How it was run: as §1

Erk1 = target: T9, Erk1 (Homo sapiens, UniProt P27361)
T9 construct: gene MAPK3
How it was run: as §1

RSK2 = target: T10, RSK2 (Homo sapiens, UniProt P51812)
T10 construct: gene RPS6KA3
How it was run: as §1

MAP4K2 = MAP4K2 (Homo sapiens, UniProt Q12851)
How it was run: as §1

CDK7/CycH/MAT1 = CDK7/CycH/MAT1 (Homo sapiens, UniProt P50613)
How it was run: as §1

CaMK2γ = target: T11, CaMK2γ (Homo sapiens, UniProt Q13555)
T11 construct: gene CAMK2G
How it was run: as §1

NEK4 = NEK4 (Homo sapiens, UniProt P51957)
How it was run: as §1

PDGFRα(D842V) = target: T12, PDGFRα(D842V) (Homo sapiens, UniProt P16234, D842V)
T12 construct: gene PDGFRA
How it was run: as §1

ROCK2 = ROCK2 (Homo sapiens, UniProt O75116)
How it was run: as §1

PKN1 = PKN1 (Homo sapiens, UniProt Q16512)
How it was run: as §1

DYRK1A = DYRK1A (Homo sapiens, UniProt Q13627)
How it was run: as §1

NuaK2 = NuaK2 (Homo sapiens, UniProt Q9H093)
How it was run: as §1

GSK3β = target: T13, GSK3β (Homo sapiens, UniProt P49841)
T13 construct: gene GSK3B
How it was run: as §1

MARK2 = MARK2 (Homo sapiens, UniProt Q7KZI7)
How it was run: as §1

FGFR1, sequence (P11362 whole entry): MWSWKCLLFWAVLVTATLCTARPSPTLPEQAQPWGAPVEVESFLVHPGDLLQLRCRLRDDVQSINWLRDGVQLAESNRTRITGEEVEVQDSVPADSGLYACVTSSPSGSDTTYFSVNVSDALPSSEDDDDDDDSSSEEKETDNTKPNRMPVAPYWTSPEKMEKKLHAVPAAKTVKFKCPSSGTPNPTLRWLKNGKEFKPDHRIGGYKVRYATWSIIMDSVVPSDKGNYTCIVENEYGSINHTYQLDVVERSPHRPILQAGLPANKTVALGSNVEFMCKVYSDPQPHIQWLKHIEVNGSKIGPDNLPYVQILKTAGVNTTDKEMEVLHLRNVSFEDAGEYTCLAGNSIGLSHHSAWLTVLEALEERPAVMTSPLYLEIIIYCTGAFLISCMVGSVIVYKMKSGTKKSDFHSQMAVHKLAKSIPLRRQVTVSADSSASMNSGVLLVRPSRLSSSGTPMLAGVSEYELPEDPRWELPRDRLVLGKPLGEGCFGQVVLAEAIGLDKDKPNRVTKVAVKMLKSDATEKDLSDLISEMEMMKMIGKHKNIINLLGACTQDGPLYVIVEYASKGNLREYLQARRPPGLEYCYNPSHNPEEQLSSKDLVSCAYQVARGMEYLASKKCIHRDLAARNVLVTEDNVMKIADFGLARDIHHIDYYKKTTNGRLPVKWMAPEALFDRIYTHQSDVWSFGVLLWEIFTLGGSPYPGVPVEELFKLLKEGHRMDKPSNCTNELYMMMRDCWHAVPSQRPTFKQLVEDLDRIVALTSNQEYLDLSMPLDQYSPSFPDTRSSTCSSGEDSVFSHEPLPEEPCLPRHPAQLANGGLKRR
T10 sequence (P51812 whole entry): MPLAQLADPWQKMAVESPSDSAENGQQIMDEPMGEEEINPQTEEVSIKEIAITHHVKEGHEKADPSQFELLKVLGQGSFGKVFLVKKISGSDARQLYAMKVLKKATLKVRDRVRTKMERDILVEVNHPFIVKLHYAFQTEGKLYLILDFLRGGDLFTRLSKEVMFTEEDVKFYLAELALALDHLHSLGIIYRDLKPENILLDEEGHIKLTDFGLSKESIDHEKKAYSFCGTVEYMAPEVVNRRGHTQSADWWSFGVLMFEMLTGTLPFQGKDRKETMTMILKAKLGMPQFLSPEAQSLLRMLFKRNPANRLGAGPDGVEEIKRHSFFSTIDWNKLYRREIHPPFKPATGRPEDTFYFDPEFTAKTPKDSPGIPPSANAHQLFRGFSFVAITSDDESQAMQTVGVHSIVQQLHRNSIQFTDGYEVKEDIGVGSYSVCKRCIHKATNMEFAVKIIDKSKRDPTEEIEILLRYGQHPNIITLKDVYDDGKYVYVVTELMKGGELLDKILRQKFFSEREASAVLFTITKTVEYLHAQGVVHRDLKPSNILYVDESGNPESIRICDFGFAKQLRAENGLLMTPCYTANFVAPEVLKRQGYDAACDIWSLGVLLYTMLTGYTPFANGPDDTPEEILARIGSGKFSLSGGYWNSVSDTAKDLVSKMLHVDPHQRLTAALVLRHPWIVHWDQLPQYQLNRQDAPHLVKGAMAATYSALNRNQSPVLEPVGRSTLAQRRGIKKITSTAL
T12 sequence (P16234 whole entry D842V): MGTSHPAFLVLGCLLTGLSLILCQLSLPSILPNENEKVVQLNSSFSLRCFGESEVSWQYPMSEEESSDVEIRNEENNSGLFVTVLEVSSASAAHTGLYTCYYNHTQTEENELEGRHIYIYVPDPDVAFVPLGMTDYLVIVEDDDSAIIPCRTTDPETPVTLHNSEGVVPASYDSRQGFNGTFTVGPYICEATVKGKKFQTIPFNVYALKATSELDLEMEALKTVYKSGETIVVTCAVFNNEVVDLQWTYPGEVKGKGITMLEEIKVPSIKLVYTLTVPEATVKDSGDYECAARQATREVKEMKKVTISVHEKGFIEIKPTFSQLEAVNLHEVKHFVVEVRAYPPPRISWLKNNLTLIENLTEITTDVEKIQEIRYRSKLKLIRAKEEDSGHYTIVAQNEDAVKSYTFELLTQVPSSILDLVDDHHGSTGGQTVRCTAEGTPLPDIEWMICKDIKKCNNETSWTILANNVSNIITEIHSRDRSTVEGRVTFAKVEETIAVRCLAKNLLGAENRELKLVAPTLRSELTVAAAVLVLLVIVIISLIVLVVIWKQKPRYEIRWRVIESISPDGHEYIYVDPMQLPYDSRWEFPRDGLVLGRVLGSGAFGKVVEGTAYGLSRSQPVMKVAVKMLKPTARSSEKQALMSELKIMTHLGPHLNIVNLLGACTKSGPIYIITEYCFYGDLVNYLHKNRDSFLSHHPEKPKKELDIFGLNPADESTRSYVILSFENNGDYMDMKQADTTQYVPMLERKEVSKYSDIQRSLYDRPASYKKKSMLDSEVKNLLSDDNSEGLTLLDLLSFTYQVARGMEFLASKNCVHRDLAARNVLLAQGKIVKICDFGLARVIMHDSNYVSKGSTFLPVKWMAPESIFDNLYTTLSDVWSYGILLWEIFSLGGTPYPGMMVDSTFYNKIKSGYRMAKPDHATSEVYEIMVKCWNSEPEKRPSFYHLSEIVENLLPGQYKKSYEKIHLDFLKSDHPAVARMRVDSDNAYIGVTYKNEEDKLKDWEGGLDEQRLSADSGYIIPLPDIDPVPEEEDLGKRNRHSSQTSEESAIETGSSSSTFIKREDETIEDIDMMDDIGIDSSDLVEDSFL
T11 sequence (Q13555 whole entry): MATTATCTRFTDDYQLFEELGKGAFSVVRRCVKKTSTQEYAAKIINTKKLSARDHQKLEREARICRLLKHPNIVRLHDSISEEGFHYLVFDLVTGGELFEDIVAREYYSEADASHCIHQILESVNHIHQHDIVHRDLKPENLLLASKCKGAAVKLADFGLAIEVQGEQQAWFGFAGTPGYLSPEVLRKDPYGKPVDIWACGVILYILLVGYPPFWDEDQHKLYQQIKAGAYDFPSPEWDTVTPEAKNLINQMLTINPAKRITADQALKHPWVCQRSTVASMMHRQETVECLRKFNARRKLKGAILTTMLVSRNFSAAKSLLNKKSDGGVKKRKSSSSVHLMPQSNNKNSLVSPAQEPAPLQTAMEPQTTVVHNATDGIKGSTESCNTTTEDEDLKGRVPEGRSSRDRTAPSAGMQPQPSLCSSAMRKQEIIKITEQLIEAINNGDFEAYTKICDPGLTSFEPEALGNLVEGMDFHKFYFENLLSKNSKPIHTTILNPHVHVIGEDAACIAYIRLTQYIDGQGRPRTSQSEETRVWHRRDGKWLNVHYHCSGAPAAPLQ
NEK4, sequence (P51957 whole entry): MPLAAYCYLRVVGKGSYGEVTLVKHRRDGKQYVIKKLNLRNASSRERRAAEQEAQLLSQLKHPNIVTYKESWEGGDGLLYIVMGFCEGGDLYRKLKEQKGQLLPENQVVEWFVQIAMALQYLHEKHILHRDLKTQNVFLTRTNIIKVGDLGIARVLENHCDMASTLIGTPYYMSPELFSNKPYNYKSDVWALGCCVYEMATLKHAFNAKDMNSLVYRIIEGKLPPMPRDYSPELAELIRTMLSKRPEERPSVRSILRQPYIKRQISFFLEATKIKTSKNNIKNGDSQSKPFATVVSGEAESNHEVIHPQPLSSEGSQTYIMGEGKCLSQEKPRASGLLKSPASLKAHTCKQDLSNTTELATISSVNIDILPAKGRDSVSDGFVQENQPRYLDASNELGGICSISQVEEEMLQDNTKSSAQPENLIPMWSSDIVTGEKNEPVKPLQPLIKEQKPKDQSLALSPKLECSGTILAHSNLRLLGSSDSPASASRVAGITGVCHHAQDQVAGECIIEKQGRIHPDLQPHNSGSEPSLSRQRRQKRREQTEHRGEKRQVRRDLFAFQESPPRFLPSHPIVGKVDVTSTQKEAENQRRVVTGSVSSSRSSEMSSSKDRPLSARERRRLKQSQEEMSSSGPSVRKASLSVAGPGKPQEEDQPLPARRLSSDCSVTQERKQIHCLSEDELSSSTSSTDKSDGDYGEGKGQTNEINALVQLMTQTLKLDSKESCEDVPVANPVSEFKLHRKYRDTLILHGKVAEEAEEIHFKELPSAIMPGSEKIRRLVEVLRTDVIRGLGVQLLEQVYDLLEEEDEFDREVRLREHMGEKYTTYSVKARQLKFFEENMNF
MAP4K2, sequence (Q12851 whole entry): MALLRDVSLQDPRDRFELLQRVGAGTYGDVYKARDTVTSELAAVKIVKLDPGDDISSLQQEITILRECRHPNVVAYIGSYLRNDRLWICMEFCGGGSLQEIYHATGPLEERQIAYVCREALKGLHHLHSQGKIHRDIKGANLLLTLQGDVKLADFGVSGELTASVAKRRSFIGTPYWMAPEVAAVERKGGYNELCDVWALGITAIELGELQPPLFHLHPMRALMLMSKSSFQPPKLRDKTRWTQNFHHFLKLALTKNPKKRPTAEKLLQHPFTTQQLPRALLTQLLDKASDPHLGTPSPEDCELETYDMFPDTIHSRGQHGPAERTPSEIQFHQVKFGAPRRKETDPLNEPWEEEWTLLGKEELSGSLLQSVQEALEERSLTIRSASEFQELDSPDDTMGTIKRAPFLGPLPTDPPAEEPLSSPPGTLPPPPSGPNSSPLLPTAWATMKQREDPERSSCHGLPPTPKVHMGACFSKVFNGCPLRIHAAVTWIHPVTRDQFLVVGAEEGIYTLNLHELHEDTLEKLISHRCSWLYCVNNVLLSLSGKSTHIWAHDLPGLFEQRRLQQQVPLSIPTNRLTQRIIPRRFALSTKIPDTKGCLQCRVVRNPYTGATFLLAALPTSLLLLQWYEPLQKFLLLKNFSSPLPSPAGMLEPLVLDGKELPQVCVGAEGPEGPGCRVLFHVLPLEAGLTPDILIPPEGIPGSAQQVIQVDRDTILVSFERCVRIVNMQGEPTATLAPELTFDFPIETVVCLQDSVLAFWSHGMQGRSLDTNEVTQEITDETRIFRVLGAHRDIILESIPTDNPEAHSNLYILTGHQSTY
T5 sequence (P16234 whole entry T674I): as the sequence (P16234 whole entry D842V) above, with T674I, V842D counted along it
T8 sequence (P16234 whole entry V561D): as the sequence (P16234 whole entry D842V) above, with V561D, V842D counted along it

c1cc(-c2ccc3[nH]ncc3c2)ccn1 [TG693, 5-(4-pyridinyl)-1H-indazole]
inhibition at 1 µM (NuaK1): 7.5% | inhibition at 1 µM (EGFR(T790M/L858R)): 1.3% | inhibition at 1 µM (PKACβ): 3.1% | inhibition at 1 µM (EPHA4): 2.4% | inhibition at 1 µM (PKCι): -6.8% | inhibition at 1 µM (SGK): 5.6% | inhibition at 1 µM (RSK1): -4.7% | inhibition at 1 µM (BMX): 4.6% | inhibition at 1 µM (AXL): 3.5% | inhibition at 1 µM (PDGFRα(T674I)): 7.6% | inhibition at 1 µM (CDK5/p25): 21.8% | inhibition at 1 µM (PKCγ): -11.4% | inhibition at 1 µM (AKT3): -4.6% | inhibition at 1 µM (NEK1): -1.5% | inhibition at 1 µM (FGFR2): 1.7% | inhibition at 1 µM (FGFR1): 6.9% | inhibition at 1 µM (EPHB4): -1.5% | inhibition at 1 µM (PDGFRα(V561D)): 2.7% | inhibition at 1 µM (Erk1): 1.4% | inhibition at 1 µM (RSK2): 2.1% | inhibition at 1 µM (MAP4K2): 1.9% | inhibition at 1 µM (CDK7/CycH/MAT1): 6.2% | inhibition at 1 µM (CaMK2γ): -2.4% | inhibition at 1 µM (NEK4): -4.2% | inhibition at 1 µM (PDGFRα(D842V)): 0.8% | inhibition at 1 µM (ROCK2): 46.3% | inhibition at 1 µM (PKN1): 34.5% | inhibition at 1 µM (DYRK1A): 84.3% | inhibition at 1 µM (NuaK2): 0.4% | inhibition at 1 µM (GSK3β): 8.5% | inhibition at 1 µM (MARK2): 20.3%
